Assay results from article PMC2924402, “Insights into the Mechanism of Ligand Binding to Octopine Dehydrogenase from Pecten maximus by NMR and Crystallography” (PLoS ONE, 2010).

Columns and labels:
[1] = biological target: T1, Octopine dehydrogenase (OcDH) (Pecten maximus, UniProt Q9BHM6); experiment: 1H-15N TROSY-HSQC NMR titration; format: binding
T1 construct: gene odh1; OcDH-His5, U-[15N] labeled

[2] = biological target: T1, Octopine dehydrogenase (OcDH); experiment: 1H-15N TROSY-HSQC NMR titration; also present in the OcDH/NADH/agmatine crystal structure; format: binding
[3] = biological target: T2, Octopine dehydrogenase (OcDH) (Pecten maximus, UniProt Q9BHM6); experiment: X-ray crystal structure ([…] Å, soak) of OcDH/NADH/agmatine; Ki from enzyme inhibition (Lineweaver-Burk); format: biochemical
T2 construct: gene odh1; OcDH-His5, residues 2–404 in the model
T2 sequence (Q9BHM6 1-399): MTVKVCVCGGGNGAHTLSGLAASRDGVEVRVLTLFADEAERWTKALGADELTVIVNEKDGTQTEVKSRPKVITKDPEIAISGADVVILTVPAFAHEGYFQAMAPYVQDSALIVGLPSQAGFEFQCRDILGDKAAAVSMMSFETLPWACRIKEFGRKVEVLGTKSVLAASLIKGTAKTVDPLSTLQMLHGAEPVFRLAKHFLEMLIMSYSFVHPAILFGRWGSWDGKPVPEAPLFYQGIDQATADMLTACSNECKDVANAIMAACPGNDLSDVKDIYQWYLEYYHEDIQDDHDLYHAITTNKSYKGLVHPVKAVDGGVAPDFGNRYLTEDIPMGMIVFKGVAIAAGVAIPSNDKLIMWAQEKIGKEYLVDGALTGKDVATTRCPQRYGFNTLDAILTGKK

[4] = biological target: T1, Octopine dehydrogenase (OcDH); experiment: 1H-15N TROSY-HSQC NMR titration of OcDH saturated with […] NADH; format: binding

**Q.** `NC(=O)c1ccc[n+]([C@@H]2O[C@H](COP(=O)([O-])OP(=O)(O)OC[C@H]3O[C@@H](n4cnc5c(N)ncnc54)[C@H](O)[C@@H]3O)[C@@H](O)[C@H]2O)c1` [NAD^+] was tested. Which Kd [1] did it give?
**A.** 400 ± 50 µM

**Q.** How did the Kd [2] turn out when `NC(=O)C1=CN([C@@H]2O[C@H](COP(=O)(O)OP(=O)(O)OC[C@H]3O[C@@H](n4cnc5c(N)ncnc54)[C@H](O)[C@@H]3O)[C@@H](O)[C@H]2O)C=CC1` [NADH] was run?
**A.** 62 ± 7 µM

**Q.** How did the Ki [3] turn out when `N=C(N)NCCCCN` [agmatine] was run?
**A.** 40000 ± 2000 µM

**Q.** For `N=C(N)NCCC[C@H](N)C(=O)O` [L-arginine], which Kd [4] is on record?
**A.** 4100 ± 310 µM
